# Read-outs that look alike come from different tables or passages of the source.
# How the values were obtained:
# Experiment in all cases: CLSI broth dilution MIC determination
# Assay type in all cases: cell-based
# [1] = system: K. pneumoniae KPC-2
# [2] = system: E. faecalis ATCC 29212
# [3] = system: S. pyogenes ATCC 19615
# [4] = system: K. pneumoniae ATCC 10031
# [5] = system: H. influenzae Erythro >4, Azithro 1; settings: Haemophilus influenzae; read-out: MIC
# Excerpt: MIC data was collected for the novel macrolides that this platform has produced against over 21 unique strains of B. subtilis, E. coli, S. aureus, S. pneumoniae, and H. influenzae, including several multidrug-resistant strains, with a special focus on macrolide resistant mechanisms (vide supra). […] CLSI standard procedures for broth dilution MIC determination were used. […] These genotypes can be constitutive or inducible.
# [6] = system: E. faecalis Vancomycin-resistant
# [7] = system: S. pyogenes Macrolide-resistant
# [8] = system: P. aeruginosa ATCC 27853
# [9] = system: A. baumannii IMP-4
# [10] = system: A. baumannii imipenem-resistant
# [11] = system: K. pneumoniae SHV-12
# [12] = system: A. baumannii ATCC 19606
# [13] = system: E. coli ATCC 25922
# How it was run: (§1)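 Azithromycin and solithromycin were included as macrolide controls in many cases. MICs were determined by CLSI standard broth dilution.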
# [14] = system: S. aureus USA600, GISA
# How it was run: as §1
# [15] = system: K. pneumoniae TEM-10
# [16] = system: S. pneumoniae mef A genotype (second strain so labelled)
# How it was run: as §1
# [17] = system: E. coli TEM-1
# How it was run: as §1
# [18] = system: S. aureus MRSA: USA100
# How it was run: as §1
# [19] = system: S. pneumoniae erm B + tet(M,O) genotype; settings: Streptococcus pneumoniae
# How it was run: as §1
# [20] = system: S. aureus MRSA: USA300
# How it was run: as §1
# [21] = system: H. influenzae ATCC49247
# How it was run: as §1
# [22] = system: S. aureus ATCC 29213
# How it was run: as §1
# [23] = system: E. coli CTX-M-14
# How it was run: as §1
# [24] = system: E. coli NDM-1
# How it was run: as §1
# [25] = system: S. pneumoniae erm B + mef A genotype
# How it was run: as §1
# [26] = system: S. pneumoniae mef A genotype (first strain so labelled)
# How it was run: as §1
# [27] = system: S. aureus erm A genotype
# How it was run: as §1
# [28] = system: S. pneumoniae ATCC 49619
# How it was run: as §1
# [29] = system: P. aeruginosa HPA101-1477
# [30] = system: A. baumannii chromosomal class C
# [31] = Klebsiella pneumoniae, KPC2, read-out: MIC
# [32] = Enterococcus faecalis, ATCC29212, E. faecalis ATCC 29212 (MP-24), read-out: MIC
# [33] = Streptococcus pyogenes, ATCC19615, S. pyogenes ATCC 19615 (MP-19), read-out: MIC
# [34] = Klebsiella pneumoniae, ATCC10031, K. pneumoniae ATCC 10031 (MP-14), read-out: MIC
# [35] = Enterococcus faecalis, E. faecalis Vancomycin-resistant (UNT-039), read-out: MIC
# [36] = Streptococcus pyogenes, S. pyogenes Macrolide-resistant (MP-625 UNT-014), read-out: MIC
# [37] = Pseudomonas aeruginosa, ATCC27853, P. aeruginosa ATCC 27853 (MP-3), read-out: MIC
# [38] = Acinetobacter baumannii, IMP4, read-out: MIC
# [39] = Acinetobacter baumannii, read-out: MIC
# [40] = Klebsiella pneumoniae, SHV12, read-out: MIC
# [41] = Acinetobacter baumannii, ATCC19606, A. baumannii ATCC 19606 (MP-15), read-out: MIC
# [42] = Escherichia coli, ATCC25922, E. coli ATCC 25922 (MP-4), read-out: MIC
# [43] = Staphylococcus aureus, S. aureus USA600, GISA (MP-619 UNT-120), read-out: MIC
# [44] = Klebsiella pneumoniae, TEM10, read-out: MIC
# [45] = Streptococcus pneumoniae, second strain (MP-627 UNT-039), read-out: MIC
# [46] = Staphylococcus aureus, S. aureus MRSA: USA100 (MP-618 UNT-096), read-out: MIC
# [47] = Staphylococcus aureus, S. aureus MRSA: USA300 (MP-549, msr(a)), read-out: MIC
# [48] = Haemophilus influenzae, read-out: MIC
# [49] = Staphylococcus aureus, ATCC29213, S. aureus ATCC 29213 (MP-12), read-out: MIC
# [50] = Escherichia coli, CTXM14, read-out: MIC
# [51] = Escherichia coli, NDM1, read-out: MIC
# [52] = Streptococcus pneumoniae, first strain (MP-626 UNT-038)
# [53] = Staphylococcus aureus, S. aureus erm A genotype (MP-620 UNT-146), read-out: MIC
# [54] = Streptococcus pneumoniae, ATCC49619, S. pneumoniae ATCC 49619 (MP-21), read-out: MIC
# [55] = Pseudomonas aeruginosa, HPA1011477, read-out: MIC
smiles,measurement,setting,value
CC[C@H]1OC(=O)[C@H](C)C(=O)[C@H](C)[C@@H](O[C@@H]2OC(C)CC(N(C)C)C2O)[C@](C)(OC)C[C@@H](C)C(=O)C[C@H]2N(CCCCn3cc(-c4cccc(N)c4)nn3)C(=O)O[C@]12C (stereo partly drawn) [FSM-21535],MIC,[1]; [31],> 32 µg/mL
same,MIC,[2]; [32],≤ 0.0312 µg/mL
same,MIC,[3]; [33],≤ 0.0312 µg/mL
same,MIC,[4]; [34],4 µg/mL
same,MIC,[5],8 µg/mL
same,MIC,[6]; [35],> 32 µg/mL
same,MIC,[7]; [36],0.5 µg/mL
same,MIC,[8]; [37],> 32 µg/mL
same,MIC,[9]; [38],> 32 µg/mL
same,MIC,[10]; [39],> 32 µg/mL
same,MIC,[11]; [40],> 32 µg/mL
same,MIC,[12]; [41],> 32 µg/mL
same,MIC,[13]; [42],> 32 µg/mL
same,MIC,[14]; [43],> 32 µg/mL
same,MIC,[15]; [44],> 32 µg/mL
same,MIC,[16]; [45],0.5 µg/mL
same,MIC,"[17]; Escherichia coli, TEM1",> 32 µg/mL
same,MIC,[18]; [46],> 32 µg/mL
same,MIC,[19],≤ 0.0312 µg/mL
same,MIC,[20]; [47],32 µg/mL
same,MIC,[21]; [48],4 µg/mL
same,MIC,[22]; [49],16 µg/mL
same,MIC,[23]; [50],> 32 µg/mL
same,MIC,[24]; [51],> 32 µg/mL
same,MIC,[25]; Streptococcus pneumoniae,8 µg/mL
same,MIC,[26]; [52],0.0625 µg/mL
same,MIC,[27]; [53],> 32 µg/mL
same,MIC,[28]; [54],≤ 0.0312 µg/mL
same,MIC,[29]; [55],> 32 µg/mL
same,MIC,[30]; [39],> 32 µg/mL
"CC[C@H]1OC(=O)[C@H](C)[C@@H](O[C@H]2C[C@@](C)(OC)[C@@H](O)[C@H](C)O2)[C@H](C)[C@@H](O[C@@H]2O[C@H](C)C[C@H](N(C)C)[C@H]2O)[C@](C)(O)C[C@@H](C)CN(C)[C@H](C)[C@@H](O)[C@]1(C)O [Azithro, azithromycin, reference compound]",MIC,[1]; Gram-negative,> 32 µg/mL
same,MIC,[1]; [31],> 32 µg/mL
same,MIC,"[2]; E. faecalis ATCC 29212, Gram-positive",4 µg/mL
same,MIC,[2]; [32],4 µg/mL
same,MIC,"[3]; S. pyogenes ATCC 19615, Gram-positive",< 0.0312 µg/mL
same,MIC,[3]; [33],< 0.0312 µg/mL
same,MIC,"[4]; K. pneumoniae ATCC 10031, Gram-negative",4 µg/mL
same,MIC,[4]; [34],4 µg/mL
same,MIC,"[6]; E. faecalis Vancomycin-resistant, Gram-positive",> 32 µg/mL
same,MIC,[6]; [35],> 32 µg/mL
same,MIC,"[7]; S. pyogenes Macrolide-resistant, Gram-positive",2 µg/mL
same,MIC,[7]; [36],2 µg/mL
same,MIC,"[8]; P. aeruginosa ATCC 27853, Gram-negative",> 32 µg/mL
same,MIC,[8]; [37],> 32 µg/mL
same,MIC,[9]; [38],> 32 µg/mL
same,MIC,[9]; Gram-negative,> 32 µg/mL
same,MIC,[10]; [39],8 µg/mL
same,MIC,[10]; Gram-negative,8 µg/mL
same,MIC,[11]; Gram-negative,16 µg/mL
same,MIC,[11]; [40],16 µg/mL
same,MIC,"[12]; A. baumannii ATCC 19606, Gram-negative",16 µg/mL
same,MIC,[12]; [41],16 µg/mL
same,MIC,"[13]; E. coli ATCC 25922, Gram-negative",4 µg/mL
same,MIC,[13]; [42],4 µg/mL
same,MIC,"[14]; S. aureus USA600, GISA, Gram-positive",> 32 µg/mL
same,MIC,[14]; [43],> 32 µg/mL
same,MIC,[15]; Gram-negative,8 µg/mL
same,MIC,[15]; [44],8 µg/mL
same,MIC,[16]; Gram-positive,4 µg/mL
same,MIC,[16]; [45],4 µg/mL
same,MIC,"[17]; E. coli TEM-1, Gram-negative",1 µg/mL
same,MIC,"[17]; Escherichia coli, TEM1",1 µg/mL
same,MIC,"[18]; S. aureus MRSA: USA100, Gram-positive",> 32 µg/mL
same,MIC,[18]; [46],> 32 µg/mL
same,MIC,[19],< 0.0312 µg/mL
same,MIC,"[20]; S. aureus MRSA: USA300, Gram-positive",32 µg/mL
same,MIC,[20]; [47],32 µg/mL
same,MIC,[21]; Gram-negative,0.5 µg/mL
same,MIC,[21]; [48],0.5 µg/mL
same,MIC,"[22]; S. aureus ATCC 29213, Gram-positive",1 µg/mL
same,MIC,[22]; [49],1 µg/mL
same,MIC,[23]; [50],> 32 µg/mL
same,MIC,[23]; Gram-negative,> 32 µg/mL
same,MIC,[24]; [51],> 32 µg/mL
same,MIC,[24]; Gram-negative,> 32 µg/mL
same,MIC,"[25]; S. pneumoniae erm B + mef A genotype, Gram-positive",> 32 µg/mL
same,MIC,[25]; Streptococcus pneumoniae,> 32 µg/mL
same,MIC,[26]; [52],0.25 µg/mL
same,MIC,"[26]; first of two rows so labelled, Gram-positive",0.25 µg/mL
same,MIC,"[27]; S. aureus erm A genotype, Gram-positive",> 32 µg/mL
same,MIC,[27]; [53],> 32 µg/mL
same,MIC,"[28]; S. pneumoniae ATCC 49619, Gram-positive",< 0.0312 µg/mL
same,MIC,[28]; [54],< 0.0312 µg/mL
same,MIC,[29]; Gram-negative,> 32 µg/mL
same,MIC,[29]; [55],> 32 µg/mL
same,MIC,[30]; [39],32 µg/mL
same,MIC,[30]; Gram-negative,32 µg/mL
C=C1C(=O)[C@H](C)C[C@@](C)(OC)[C@H](O[C@@H]2OC(C)CC(N(C)C)C2O)[C@@H](C)C(=O)[C@@H](C)C(=O)O[C@H](CC)[C@@]2(C)OC(=O)N(CCCCn3cc(-c4cccc(N)c4)nn3)[C@H]12 (stereo partly drawn) [FSM-21828],MIC,[1]; [31],> 32 µg/mL
same,MIC,[2]; [32],1 µg/mL
same,MIC,[3]; [33],≤ 0.0312 µg/mL
same,MIC,[4]; [34],16 µg/mL
same,MIC,[5],16 µg/mL
same,MIC,[6]; [35],> 32 µg/mL
same,MIC,[7]; [36],0.5 µg/mL
same,MIC,[8]; [37],> 32 µg/mL
same,MIC,[9]; [38],> 32 µg/mL
same,MIC,[10]; [39],> 32 µg/mL
same,MIC,[11]; [40],> 32 µg/mL
same,MIC,[12]; [41],> 32 µg/mL
same,MIC,[13]; [42],> 32 µg/mL
same,MIC,[14]; [43],> 32 µg/mL
same,MIC,[15]; [44],> 32 µg/mL
same,MIC,[16]; [45],0.5 µg/mL
same,MIC,"[17]; Escherichia coli, TEM1",> 32 µg/mL
same,MIC,[18]; [46],> 32 µg/mL
same,MIC,[19],≤ 0.0312 µg/mL
same,MIC,[20]; [47],> 32 µg/mL
same,MIC,[21]; [48],16 µg/mL
same,MIC,[22]; [49],4 µg/mL
same,MIC,[23]; [50],> 32 µg/mL
same,MIC,[24]; [51],> 32 µg/mL
same,MIC,[25]; Streptococcus pneumoniae,32 µg/mL
same,MIC,[26]; [52],0.0625 µg/mL
same,MIC,[27]; [53],> 32 µg/mL
same,MIC,[28]; [54],≤ 0.0312 µg/mL
same,MIC,[29]; [55],> 32 µg/mL
same,MIC,[30]; [39],> 32 µg/mL
